Where a name gives a salt, the structure may show the parent alone. Read-outs that look alike come from different tables or passages of the source.
Columns and labels:
HIV-2 (LAV-2 ROD) = assay: MT-4 cells challenged with HIV-2, viability by MTT method (antiviral activity); assay type: cell-based, Human Immunodeficiency Virus; settings: for IC50: Human immunodeficiency virus 2, MT4, 120 h
HIV-1 (HTLV-IIIB) = assay: microbe, parasite or virus in culture; assay type: cell-based
[1] = cytotoxicity in MT-4 cells, MTT method; settings: human
cells = settings: in words; cited from earlier work
[2] = octanol/buffer partition coefficient; assay type: physicochemical; settings: for logD: octanol/buffer
Text: The compounds were additionally studied to determine their partition coefficients as between octanol and water, in standard tests at various pH values. A partition coefficient greater than unity at pH 7-9 is generally considered to be a good indication that the compound will be absorbed through the upper gastrointestinal tract when dosed orally.

[3] = literature (Barefield et al); cited from earlier work
solubility in water = assay type: physicochemical; settings: dimer believed to be the meso 2R,2'S isomer, characterised by the applicant
[4] = HIV-2 (ROD), MT-4 cells, 5 days at 37° C., read-out: IC50
[5] = Human immunodeficiency virus 1, MT4, 120 h, HIV-1 (IIIB), MT-4 cells, 5 days at 37° C., read-out: IC50
[6] = CC50, HIV-1 (IIIB) part of Table 1, 5 days at 37° C.
[7] = CC50, HIV-2 (ROD) part of Table 1, 5 days at 37° C.
[8] = Human immunodeficiency virus 1, IIIB, MT4, 120 h

Compound | SI (Selectivity Index, ratio of CC50 to IC50) (HIV-2 (LAV-2 ROD); HIV-2 (ROD), MT-4 cells) | CC50 at 120 h [1, 6] | CC50 at 120 h [1, 7] | SI (Selectivity Index, ratio of CC50 to IC50) (HIV-1 (HTLV-IIIB); HIV-1 (IIIB), MT-4 cells) | IC50 (HIV-2 (LAV-2 ROD)) | IC50 (HIV-1 (HTLV-IIIB); [8]) | logD ([2]; pH 8) | logD ([2]; pH 9) | further results
c1cc2nc(c1)CNCCN(Cc1ccc(CN3CCNCc4cccc(n4)CNCC3)cc1)CCNC2 [Compound G, 6,6'-[1,4'-Phenylenebis(methylene)]bis-3,6,9,15-tetraazabicyclo[11.3.1]pentadeca-1(15),11,13-triene hexahydromide trihydrate] | 31 | 6 µg/mL | 4.71 µg/mL |  |  |  |  |  | IC50 (HIV-2 (LAV-2 ROD); [4]): 0.15 µg/mL; IC50 (HIV-1 (HTLV-IIIB); [5]): 0.62 µg/mL
Cc1cn([C@H]2C[C@H](N=[N+]=[N-])[C@@H](CO)O2)c(=O)[nH]c1=O [AZT] |  |  |  |  |  |  |  |  | toxicity to cells (cells): high toxicity to cells
c1cc(CN2CCNCc3cccc(n3)CNCC2)cc(CN2CCNCc3cccc(n3)CNCC2)c1 [Compound H, 6,6'-[1,3-Phenylenebis(methylene)]bis-3,6,9,15-tetraazabicyclo[11.3.1]pentadeca-1(15),11,13-triene hexahydrobromide trihydrate] | 1.12 × 10^4 | 32.1 µg/mL | 30.7 µg/mL | 309 |  |  |  |  | IC50 (HIV-2 (LAV-2 ROD); [4]): 0.0027 µg/mL; IC50 (HIV-1 (HTLV-IIIB); [5]): 0.104 µg/mL
c1cc(CN2CCCNCCOCCNCCC2)ccc1CN1CCCNCCOCCNCCC1 [Compound J, 8,8'-[1,4-Phenylenebis(methylene)]bis-1-oxa-4,8,12-triazatetradecane-hexahydro bromide trihydrate] | > 116 | > 250 µg/mL | > 250 µg/mL | > 54 | 2.15 µg/mL | 4.62 µg/mL | -1.92 | -0.131 | logD ([2]; pH 7): -2.52
c1cc2nc(c1)CNCCN(Cc1ccc(CN3CCNCc4cccc(n4)CNCCNCc4cccc(n4)C3)cc1)Cc1cccc(n1)CNCCNC2 [Compound K, 17,17'-[1,4-Phenylene-bis(methylene)]bis-3,6,14,17,23,24-hexaazatricyclo[17.3.1.1^8,12] tetracosa-1(23),8,10,12(24),19,21-hexnene octahydrobromide] | < 1 | 4.59 µg/mL | 5.89 µg/mL | < 1 | 5.89 µg/mL | 4.59 µg/mL | -1.15 | 0.25 | 
COc1cc2nc(c1)CNCCCN(Cc1ccc(CN3CCCNCc4cc(OC)cc(n4)CNCCC3)cc1)CCCNC2 [Compound C, 7,7'-[1,4-Phenylenebis(methylene)]bis[15-methoxy-3,7,11,17-tetraazabicyclo-[13.3.1]heptadeca-1(17),13,15-triene] hexahydrobromide dihydrate] |  | 229 µg/mL | > 250 µg/mL | 64 | 9.74 µg/mL | 3.57 µg/mL | -0.959 | -0.0605 | 
c1cc2nc(c1)CCNCCN(Cc1ccc(CN3CCNCCc4cccc(n4)CCNCC3)cc1)CCNCC2 [Compound E, 7,7'-[1,4-Phenylenebis(methylene)]bis-4,7,10,17-tetraazabicyclo-[13.3.1]heptadeca-1(17),13,15-triene octahydrobromide tetrahydrate] |  | > 250 µg/mL | > 250 µg/mL |  | 0.001 µg/mL | 0.0014 µg/mL | -1.44 | 0.479 | logD ([2]; pH 7): -2.4
c1cc2nc(c1)CNCCCN(Cc1ccc(CN3CCCNCc4cccc(n4)CNCCC3)cc1)CCCNC2 [Compound A, 7,7'-[1,4-Phenylenebis(methylene)]bis-3,7,11,17-tetraazabicyclo[13.3.1heptadeca-1(17),13,15-trienehexahydrobromide hexahydrate] |  | > 250 µg/mL | > 250 µg/mL |  | 3.51 µg/mL | 0.719 µg/mL | -0.963 | 0.713 | 
c1cc2nc(c1)CCNCCCN(Cc1ccc(CN3CCCNCCc4cccc(n4)CCNCCC3)cc1)CCCNCC2 [Compound F, 8,8'-[1,4-Phenylenebis(methylene)]bis-4,8,12,19-tetraazabicyclo[15.3.1]nonadeca-1(19),15,17-triene octahydrobromide heptahydrate] | 102 | 199 µg/mL | 171 µg/mL | 336 |  |  |  |  | IC50 (HIV-2 (LAV-2 ROD); [4]): 1.68 µg/mL; IC50 (HIV-1 (HTLV-IIIB); [5]): 0.59 µg/mL
C1CNCCNCCCNC(C2CNCCCNCCNCCCN2)CNC1 (stereo not drawn) [2,2'-dimer of cyclam] |  |  |  |  |  |  |  |  | solubility in water [3]: insoluble in water
Clc1cc2nc(c1)CNCCCN(Cc1ccc(CN3CCCNCc4cc(Cl)cc(n4)CNCCC3)cc1)CCCNC2 [Compound B, 7,7'-[1,4-Phenylenebis(methylene)]bis[15-chloro-3,7,11,17-tetraazabicyclo[13.3.1]heptadeca-1(17),13,15-triene]hexahydrobromide monoacetate] |  | 12.5 µg/mL |  | 14 |  | 0.89 µg/mL | 0.588 | 1.46 | logD ([2]; pH 7): -1
C1CNCCNCCCN[C@H]([C@H]2CNCCCNCCNCCCN2)CNC1 [meso 2R,2'S isomer] |  |  |  |  |  |  |  |  | solubility in water (solubility in water): soluble
c1cc(CN2CCCNCCNCCCNCC2)ccc1CN1CCCNCCNCCCNCC1 [Compound L, 1,1'-[1,4-phenylenebis(methylene)]bis-1,4,8,11-tetraazacyclotetra-decane octahydrobromide dihydrate, reference compound] |  | > 250 µg/mL | > 250 µg/mL |  |  |  |  |  | IC50 (HIV-2 (LAV-2 ROD); [4]): 0.009 µg/mL; IC50 (HIV-1 (HTLV-IIIB); Human immunodeficiency virus 1, IIIB, MT4, 120 h, read-out: IC50): 0.0068 µg/mL; octanol/buffer partition coefficient ([2]; pH 7): 0.0016; octanol/buffer partition coefficient ([2]; pH 8): 0.005; octanol/buffer partition coefficient ([2]; pH 9): 0.16
O=c1cc2[nH]c(c1)CNCCCN(Cc1ccc(CN3CCCNCc4cc(=O)cc([nH]4)CNCCC3)cc1)CCCNC2 [Compound D, 7,7'-[1,4-Phenylenebis(methylene)]bis-3,7,11,17-tetraazabicyclo-[13.3.1]-heptadeca-13,16-triene-15-one octahydrobromide] | < 1 | > 218 µg/mL | > 250 µg/mL | < 1 | > 250 µg/mL | > 218 µg/mL | -1.6 | -0.638 | 
